From patent publication US9266830B2, “Pesticidal arylpyrrolidines” (Bayer Intellectual Property GmbH, priority 2007, dated 2016)

Key:
Format in all cases: in vivo
Boophilus microplus [1] = experiment: Boophilus microplus (dip); conditions: application rate 100 ppm, adult engorged females, after 7 days
Method: (§1) Solvent: dimethyl sulfoxide
To produce a suitable preparation of active compound, 10 mg of active compound are dissolved in 0.5 ml solvent, and the concentrate is diluted with water to the desired concentration. Eight to ten adult engorged female Boophilus microplus ticks are placed in perforated plastic beakers and immersed in aqueous compound solution for one minute. Ticks are transferred to a filter paper in a plastic tray. Egg deposition of fertile eggs is monitored after. After 7 days mortality in % is determined 100% means that all the ticks have been killed; 0% means that none of the ticks have been killed.

Boophilus microplus [2] = experiment: Boophilus microplus test (injection); conditions: application rate 20 μg/animal, adult engorged females, after 7 days
Method: as §1
To produce a suitable preparation of active compound, 10 mg of active compound are dissolved in 0.5 ml solvent, and the concentrate is diluted with solvent to the desired concentration. Five adult engorged female ticks (Boophilus microplus) are injected with compound solution into the abdomen. Ticks are transferred into replica plates and incubated in a climate chamber for a period of time. Egg deposition of fertile eggs is monitored. After 7 days mortality in % is determined 100% means that all eggs are infertile; 0% means that all eggs are fertile.

Lucilia cuprina larvae = experiment: Lucilia cuprina test (larvae in minced horse meat); conditions: application rate 100 ppm, larvae, after 2 days
Method: as §1
To produce a suitable preparation of active compound, 10 mg of active compound are dissolved in 0.5 ml solvent, and the concentrate is diluted with water to the desired concentration. Approximately 20-30 (Lucilia cuprina larvae) are transferred into a test tube containing 1 cm^3 of minced horse meat and 0.5 ml aqueous dilution of test compound. After 2 days mortality in % is determined 100% means that all the larvae have been killed; 0% means that none of the larvae have been killed.

Amblyomma hebraeum = Amblyomma hebraeum test (AMBYHE), nymph immersion; conditions: for activity (mortality in %): application rate 100 ppm, nymphs, after 42 days
Method: as §1
To produce a suitable preparation of active compound, 10 mg of active compound are dissolved in 0.5 ml solvent, and the concentrate is diluted with water to the desired concentration. Nymphs of the tick Amblyomma hebraeum are placed in perforated plastic beakers and immersed in aqueous compound solution for one minute. Ticks are transferred to a filter paper in a Petri dish and incubated in a climate chamber for 42 days.
After 42 days mortality in % is determined 100% means that all the ticks have been killed; 0% means that none of the ticks have been killed.

Structure (SMILES)	activity (100% means that all eggs are infertile) (Boophilus microplus [2])	also measured
CC(C)CC(=O)NCc1ccc(N2CCC(c3cc(Cl)cc(Cl)c3)(C(F)(F)F)C2)cc1Cl (stereo not shown) [1-7]	100%	activity (mortality in %) (Boophilus microplus [1]): 80%
CN(Cc1ccc(N2CCC(c3cc(Cl)cc(Cl)c3)(C(F)(F)F)C2)cc1Cl)C(=O)C1CC1 (stereo not shown) [1-74]	100%	activity (mortality in %) (Lucilia cuprina larvae): 90%
CCNC(=O)NCc1ccc(N2CCC(c3cc(Cl)cc(Cl)c3)(C(F)(F)F)C2)cc1Cl (stereo not shown) [1-77]	100%	activity (mortality in %) (Boophilus microplus [1]): 80%
O=C(NCc1ccc(N2CCC(c3cc(Cl)cc(Cl)c3)(C(F)(F)F)C2)cc1Cl)NCC(F)(F)F (stereo not shown) [1-78]	100%	activity (mortality in %) (Boophilus microplus [1]): 80%
CCCNC(=O)NCc1ccc(N2CCC(c3cc(Cl)cc(Cl)c3)(C(F)(F)F)C2)cc1Cl (stereo not shown) [1-79]	100%	activity (mortality in %) (Lucilia cuprina larvae): 90%
C=CCNC(=O)NCc1ccc(N2CCC(c3cc(Cl)cc(Cl)c3)(C(F)(F)F)C2)cc1Cl (stereo not shown) [1-87]	100%	activity (mortality in %) (Lucilia cuprina larvae): 80%
COCCNC(=O)NCc1ccc(N2CCC(c3cc(Cl)cc(Cl)c3)(C(F)(F)F)C2)cc1Cl (stereo not shown) [1-97]	100%	activity (mortality in %) (Lucilia cuprina larvae): 90%
CN(C)C(=O)NCc1ccc(N2CCC(c3cc(Cl)cc(Cl)c3)(C(F)(F)F)C2)cc1Cl (stereo not shown) [1-118]	100%	activity (mortality in %) (Amblyomma hebraeum): 90%
O=C(CC(F)(F)F)NCc1ccc(N2CCC(c3cc(Cl)cc(Cl)c3)(C(F)(F)F)C2)cc1C(F)(F)F (stereo not shown) [1-162]	100%	activity (mortality in %) (Boophilus microplus [1]): 95%
O=C(NCc1ccc(N2CCC(c3cc(Cl)cc(Cl)c3)(C(F)(F)F)C2)cc1C(F)(F)F)C(F)F (stereo not shown) [1-164]	100%	activity (mortality in %) (Boophilus microplus [1]): 95%
CC=CC(=O)NCc1ccc(N2CCC(c3cc(Cl)cc(Cl)c3)(C(F)(F)F)C2)cc1C(F)(F)F (stereo not shown) [1-174]	100%	activity (mortality in %) (Boophilus microplus [1]): 80%
C=CCNC(=O)NCc1ccc(N2CCC(c3cc(Cl)cc(Cl)c3)(C(F)(F)F)C2)cc1C(F)(F)F (stereo not shown) [1-230]	100%	activity (mortality in %) (Amblyomma hebraeum): 80%
COCCNC(=O)NCc1ccc(N2CCC(c3cc(Cl)cc(Cl)c3)(C(F)(F)F)C2)cc1C(F)(F)F (stereo not shown) [1-243]	100%	activity (mortality in %) (Lucilia cuprina larvae): 95%
CSCCNC(=O)NCc1ccc(N2CCC(c3cc(Cl)cc(Cl)c3)(C(F)(F)F)C2)cc1C(F)(F)F (stereo not shown) [1-244]	100%	activity (mortality in %) (Lucilia cuprina larvae): 80%
O=C(NCc1ccc(N2CCC(c3cc(Cl)cc(Cl)c3)(C(F)(F)F)C2)cc1C(F)(F)F)N1CCOCC1 (stereo not shown) [1-257]	100%	activity (mortality in %) (Lucilia cuprina larvae): 95%
O=C(CCCl)NCc1ccc(N2CCC(c3cc(C(F)(F)F)cc(C(F)(F)F)c3)(C(F)(F)F)C2)cc1C(F)(F)F (stereo not shown) [1-297]	100%	activity (mortality in %) (Amblyomma hebraeum): 90%
CNC(=O)NCc1ccc(N2CCC(c3cc(C(F)(F)F)cc(C(F)(F)F)c3)(C(F)(F)F)C2)cc1C(F)(F)F (stereo not shown) [1-301]	100%	activity (mortality in %) (Boophilus microplus [1]): 80%
NCc1ccc(N2CCC(c3cc(C(F)(F)F)cc(C(F)(F)F)c3)(C(F)(F)F)C2)cc1Cl (stereo not shown) [1-306]	–	activity (mortality in %) (Lucilia cuprina larvae): 90%
CCC(=O)NCc1ccc(N2CCC(c3cc(C(F)(F)F)cc(C(F)(F)F)c3)(C(F)(F)F)C2)cc1Cl (stereo not shown) [1-307]	100%	activity (mortality in %) (Amblyomma hebraeum): 80%
O=C(NCc1ccc(N2CCC(c3cc(C(F)(F)F)cc(C(F)(F)F)c3)(C(F)(F)F)C2)cc1Br)C1CC1 (stereo not shown) [1-313]	100%	activity (mortality in %) (Amblyomma hebraeum): 95%
O=S(=O)(CC(F)(F)F)NCc1ccc(N2CCC(c3cc(Cl)c(Cl)c(Cl)c3)(C(F)(F)F)C2)cc1C(F)(F)F (stereo not shown) [1-334]	100%	activity (mortality in %) (Lucilia cuprina larvae): 90%
NCc1ccc(N2CCC(c3cc(Cl)c(Cl)c(Cl)c3)(C(F)(F)F)C2)cc1Cl (stereo not shown) [1-336]	100%	activity (mortality in %) (Lucilia cuprina larvae): 90%
O=C(CC(F)(F)F)NCc1ccc(N2CCC(c3cc(Cl)c(Cl)c(Cl)c3)(C(F)(F)F)C2)cc1Cl (stereo not shown) [1-340]	100%	activity (mortality in %) (Amblyomma hebraeum): 80%
O=C(CC(F)(F)F)NCc1ccc(N2CCC(c3cc(Cl)c(Cl)c(Cl)c3)(C(F)(F)F)C2)cc1Br (stereo not shown) [1-347]	100%	activity (mortality in %) (Amblyomma hebraeum): 90%

Structure (SMILES)	activity (100% means that all eggs are infertile) (Boophilus microplus [2])	also measured
O=C(CC(F)(F)F)NCc1ccc(N2CCC(c3cc(C(F)(F)F)cc(C(F)(F)F)c3)(C(F)(F)F)C2)nc1C(F)(F)F (stereo not shown) [1-404]	100%	activity (mortality in %) (Amblyomma hebraeum): 85%
CSCCC(=O)NCc1ccc(N2CCC(c3cc(Cl)cc(Cl)c3)(C(F)(F)F)C2)cc1C(F)(F)F (stereo not shown) [1-509]	100%	activity (mortality in %) (Amblyomma hebraeum): 90%
CC(C)(C)OC(=O)NCc1ccc(N2CCC(c3cc(Cl)c(Cl)c(Cl)c3)(C(F)(F)F)C2)cc1Cl (stereo not shown) [1-694]	100%	activity (mortality in %) (Lucilia cuprina larvae): 80%
C=CCS(=O)(=O)CC(=O)NCc1ccc(N2CCC(c3cc(Cl)c(Cl)c(Cl)c3)(C(F)(F)F)C2)cc1C(F)(F)F (stereo not shown) [1-734]	100%	activity (mortality in %) (Amblyomma hebraeum): 90%
Cc1nc(N2CCC(c3cc(Cl)cc(Cl)c3)(C(F)(F)F)C2)ncc1C(=O)NCC(F)(F)F (stereo not shown) [2-69]	100%	activity (mortality in %) (Lucilia cuprina larvae): 90%
CCC(=O)NCc1ccc(N2CCC(c3cc(Cl)cc(Cl)c3)(C(F)(F)F)C2)cc1Br (stereo not shown) [3-5 according to WO2008/128711, reference compound]	–	Activity at 0.8 ppm (Amblyomma hebraeum; 0.8 ppm, comparison with WO2008/128711): 10%; Activity at 4 ppm (Amblyomma hebraeum; 4 ppm, comparison with WO2008/128711): 70%
NCc1cnc(N2CCC(c3cc(C(F)(F)F)cc(C(F)(F)F)c3)(C(F)(F)F)C2)nc1C(F)(F)F (stereo not shown) [3-146]	100%	–
CCC(=O)NCc1cnc(N2CCC(c3cc(C(F)(F)F)cc(C(F)(F)F)c3)(C(F)(F)F)C2)nc1C(F)(F)F (stereo not shown) [3-148]	100%	–
O=C(NCc1cnc(N2CCC(c3cc(C(F)(F)F)cc(C(F)(F)F)c3)(C(F)(F)F)C2)nc1C(F)(F)F)C1CC1 (stereo not shown) [3-149]	100%	–
O=C(CC(F)(F)F)NCc1cnc(N2CCC(c3cc(C(F)(F)F)cc(C(F)(F)F)c3)(C(F)(F)F)C2)nc1C(F)(F)F (stereo not shown) [3-150]	100%	–
CCNC(=O)NCc1cnc(N2CCC(c3cc(C(F)(F)F)cc(C(F)(F)F)c3)(C(F)(F)F)C2)nc1C(F)(F)F (stereo not shown) [3-151]	100%	–
O=C(NCC(F)(F)F)c1sc(N2CCC(c3cc(Cl)cc(Cl)c3)(C(F)(F)F)C2)nc1C(F)(F)F (stereo not shown) [4-8]	100%	–
O=C(NCc1ccccn1)c1sc(N2CCC(c3cc(Cl)cc(Cl)c3)(C(F)(F)F)C2)nc1C(F)(F)F (stereo not shown) [4-9]	–	activity (mortality in %) (Lucilia cuprina larvae): 80%
O=C(NCc1ccccn1)c1sc(N2CCC(c3cc(Cl)c(Cl)c(Cl)c3)(C(F)(F)F)C2)nc1C(F)(F)F (stereo not shown) [4-22]	100%	–
O=C(NCC(F)(F)F)c1sc(N2CCC(c3cc(C(F)(F)F)cc(C(F)(F)F)c3)(C(F)(F)F)C2)nc1C(F)(F)F (stereo not shown) [4-34]	100%	–
O=C(NCc1ccccn1)c1sc(N2CCC(c3cc(C(F)(F)F)cc(C(F)(F)F)c3)(C(F)(F)F)C2)nc1C(F)(F)F (stereo not shown) [4-35]	100%	–
O=C(NCc1sc(N2CCC(c3cc(Cl)c(Cl)c(Cl)c3)(C(F)(F)F)C2)nc1C(F)(F)F)C1CC1 (stereo not shown) [5-143]	100%	–
O=C(CC(F)(F)F)NCc1sc(N2CCC(c3cc(Cl)c(Cl)c(Cl)c3)(C(F)(F)F)C2)nc1C(F)(F)F (stereo not shown) [5-144]	100%	–
CCC(=O)NC1CCc2cc(N3CCC(c4cc(Cl)cc(Cl)c4)(C(F)(F)F)C3)ccc21 (stereo not shown) [6-4]	100%	–
CC(=O)NC1CCc2cc(N3CCC(c4cc(Cl)c(Cl)c(Cl)c4)(C(F)(F)F)C3)ccc21 (stereo not shown) [6-267]	100%	–
CC(C)(C)OC(=O)NC1CCc2cc(N3CCC(c4cc(Cl)c(Cl)c(Cl)c4)(C(F)(F)F)C3)ccc21 (stereo not shown) [6-802]	100%	–
N#Cc1ccc(N2CCC(c3cc(Cl)c(Cl)c(Cl)c3)(C(F)(F)F)C2)cc1C(F)(F)F (stereo not shown) [7-12]	100%	–
N#Cc1ccc(N2CCC(c3cc(Cl)c(Cl)c(Cl)c3)(C(F)(F)F)C2)cc1Cl (stereo not shown) [7-13]	100%	–
